According to ChEMBL document CHEMBL5576038, “Design of a novel long-acting dual GLP-1/GIP receptor agonist” (Bioorg Med Chem, 2024):
Where a SMILES comes first, the peptide text is derived from it. [ ]: non-standard residue; d: D form. The star is where a group is joined. X1 = N[C@@H](CCCCNC(=O)CC[C@H](NC(=O)CCCCCCCCCCCCCCCCCCC(=O)O)C(=O)O)C(=O)NCCCC[C@H](N)C(=O)N[C@@H](CCCCNC(=O)C*)C(=O)O; X6 = N[C@@H](CCCCNC(=O)CC[C@H](NC(=O)CCCCCCCCCCCCCCCCC(=O)O)C(=O)O)C(=O)NCCCC[C@H](N)C(=O)N[C@@H](CCCCNC(=O)C*)C(=O)O; X7 = O=C(O)CCCCCCCCCCCCCCCCCCC(=O)NCCOCCOCC(=O)N[C@@H](CCC(=O)N[C@H](CCC(=O)N[C@H](CCCCNC(=O)C*)C(=O)O)C(=O)O)C(=O)O; X5 = O=C(O)CCCCCCCCCCCCCCCCCCC(=O)N[C@@H](CCC(=O)NCCOCCOCC(=O)NCCOCCOCC(=O)N[C@@H](CCCCNC(=O)C*)C(=O)O)C(=O)O; Aib = CC(C)(N)C(=O)O

Tests used:
[1] = biological target: Glucagon-like peptide 1 receptor (Homo sapiens, UniProt P43220); test: Agonist activity at human GLP-1R expressed in CHO cells assessed as increase in cAMP production incubated for 30 mins by Eu-cAMP tracer based microplate reader analysis; assay type: functional, cell-based
[2] = biological target: T1, Gastric inhibitory polypeptide receptor (Homo sapiens, UniProt P48546); test: Agonist activity at human GIPR expressed in CHO cells assessed as increase in cAMP production incubated for 30 mins by Eu-cAMP tracer based microplate reader analysis; assay type: functional, cell-based
T1 sequence (P48546 whole entry): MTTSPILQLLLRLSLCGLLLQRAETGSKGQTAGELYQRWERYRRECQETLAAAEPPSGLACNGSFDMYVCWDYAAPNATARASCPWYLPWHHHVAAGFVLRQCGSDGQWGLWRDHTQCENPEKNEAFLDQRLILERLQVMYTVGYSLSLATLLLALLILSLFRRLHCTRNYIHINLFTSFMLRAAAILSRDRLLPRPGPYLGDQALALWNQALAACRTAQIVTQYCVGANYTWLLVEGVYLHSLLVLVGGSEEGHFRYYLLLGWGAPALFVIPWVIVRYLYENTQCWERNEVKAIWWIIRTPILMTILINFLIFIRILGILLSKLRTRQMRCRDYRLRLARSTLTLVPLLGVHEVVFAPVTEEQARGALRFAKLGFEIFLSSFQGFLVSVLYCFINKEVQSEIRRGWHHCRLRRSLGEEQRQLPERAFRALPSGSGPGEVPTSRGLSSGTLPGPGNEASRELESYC

Chain of Glucagon-like peptide 1 receptor (P43220 whole entry): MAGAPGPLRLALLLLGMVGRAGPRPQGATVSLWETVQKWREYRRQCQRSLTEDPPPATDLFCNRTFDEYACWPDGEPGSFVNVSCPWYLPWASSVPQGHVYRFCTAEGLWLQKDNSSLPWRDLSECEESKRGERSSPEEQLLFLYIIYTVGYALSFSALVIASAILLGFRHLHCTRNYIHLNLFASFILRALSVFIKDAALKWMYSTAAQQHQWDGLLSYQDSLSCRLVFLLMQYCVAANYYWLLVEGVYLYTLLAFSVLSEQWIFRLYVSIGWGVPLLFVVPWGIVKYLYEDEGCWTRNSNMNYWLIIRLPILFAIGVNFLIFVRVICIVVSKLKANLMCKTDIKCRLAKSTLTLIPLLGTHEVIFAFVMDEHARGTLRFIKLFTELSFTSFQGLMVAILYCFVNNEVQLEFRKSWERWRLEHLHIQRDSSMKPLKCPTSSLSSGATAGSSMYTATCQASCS

## CC(C)C[C@H](NC(=O)[C@H](CC(C)C)NC(=O)[C@H](Cc1c[nH]c2ccccc12)NC(=O)[C@H](CCC(N)=O)NC(=O)[C@@H](NC(=O)[C@H](Cc1ccccc1)NC(=O)[C@H](CC(C)C)NC(=O)[C@H](CS)NC(=O)[C@H](C)NC(=O)[C@H](C)NC(=O)[C@H](CCC(N)=O)NC(=O)[C@H](CCCCN)NC(=O)[C@H](CCC(=O)O)NC(=O)[C@H](CC(C)C)NC(=O)[C@H](Cc1ccc(O)cc1)NC(=O)[C@H](Cc1ccc(O)cc1)NC(=O)[C@H](CO)NC(=O)[C@H](Cc1ccc(O)cc1)NC(=O)[C@H](CC(=O)O)NC(=O)[C@H](CO)NC(=O)[C@@H](NC(=O)[C@H](Cc1ccccc1)NC(=O)[C@@H](NC(=O)CNC(=O)[C@H](CCC(=O)O)NC(=O)C(C)(C)NC(=O)[C@@H](N)Cc1ccc(O)cc1)[C@@H](C)O)[C@@H](C)O)C(C)C)C(=O)N[C@@H](C)C(=O)NCC(=O)NCC(=O)N1CCC[C@H]1C(=O)N[C@@H](CO)C(=O)N[C@@H](CO)C(=O)NCC(=O)N[C@@H](C)C(=O)N1CCC[C@H]1C(=O)N1CCC[C@H]1C(=O)N1CCC[C@H]1C(=O)N[C@@H](CO)C(N)=O (H-Y[Aib]EGTFTSDYSYYLEKQAACLFVQWLLAGGPSSGAPPPS-NH2)
[1]
  EC50: 290 pM
[2]
  EC50: 600 pM

## CC(C)C[C@H](NC(=O)[C@H](CC(C)C)NC(=O)[C@H](Cc1c[nH]c2ccccc12)NC(=O)[C@H](CSCC(=O)NCCCC[C@H](NC(=O)COCCOCCNC(=O)COCCOCCNC(=O)CC[C@H](NC(=O)CCCCCCCCCCCCCCCCCCC(=O)O)C(=O)O)C(=O)O)NC(=O)[C@@H](NC(=O)[C@H](Cc1ccccc1)NC(=O)[C@H](CC(C)C)NC(=O)[C@H](CCCCN)NC(=O)[C@H](C)NC(=O)[C@H](C)NC(=O)[C@H](CCC(N)=O)NC(=O)[C@H](CCCCN)NC(=O)[C@H](CCC(=O)O)NC(=O)[C@H](CC(C)C)NC(=O)[C@H](Cc1ccc(O)cc1)NC(=O)[C@H](Cc1ccc(O)cc1)NC(=O)[C@H](CO)NC(=O)[C@H](Cc1ccc(O)cc1)NC(=O)[C@H](CC(=O)O)NC(=O)[C@H](CO)NC(=O)[C@@H](NC(=O)[C@H](Cc1ccccc1)NC(=O)[C@@H](NC(=O)CNC(=O)[C@H](CCC(=O)O)NC(=O)C(C)(C)NC(=O)[C@@H](N)Cc1ccc(O)cc1)[C@@H](C)O)[C@@H](C)O)C(C)C)C(=O)N[C@@H](C)C(=O)NCC(=O)NCC(=O)N1CCC[C@H]1C(=O)N[C@@H](CO)C(=O)N[C@@H](CO)C(=O)NCC(=O)N[C@@H](C)C(=O)N1CCC[C@H]1C(=O)N1CCC[C@H]1C(=O)N1CCC[C@H]1C(=O)N[C@@H](CO)C(N)=O (H-Y[Aib]EGTFTSDYSYYLEKQAAKLFVC(X5)WLLAGGPSSGAPPPS-NH2)
[1]
  EC50: 890 pM
[2]
  EC50: 3730 pM

## CC(C)C[C@H](NC(=O)[C@H](CC(C)C)NC(=O)[C@H](Cc1c[nH]c2ccccc12)NC(=O)[C@H](CCC(N)=O)NC(=O)[C@@H](NC(=O)[C@H](Cc1ccccc1)NC(=O)[C@H](CC(C)C)NC(=O)[C@H](CCCCN)NC(=O)[C@H](C)NC(=O)[C@H](C)NC(=O)[C@H](CCC(N)=O)NC(=O)[C@H](CSCC(=O)NCCCC[C@@H](NC(=O)CC[C@@H](NC(=O)CC[C@H](NC(=O)COCCOCCNC(=O)CCCCCCCCCCCCCCCCCCC(=O)O)C(=O)O)C(=O)O)C(=O)O)NC(=O)[C@H](CCC(=O)O)NC(=O)[C@H](CC(C)C)NC(=O)[C@H](Cc1ccc(O)cc1)NC(=O)[C@H](Cc1ccc(O)cc1)NC(=O)[C@H](CO)NC(=O)[C@H](Cc1ccc(O)cc1)NC(=O)[C@H](CC(=O)O)NC(=O)[C@H](CO)NC(=O)[C@@H](NC(=O)[C@H](Cc1ccccc1)NC(=O)[C@@H](NC(=O)CNC(=O)[C@H](CCC(=O)O)NC(=O)C(C)(C)NC(=O)[C@@H](N)Cc1ccc(O)cc1)[C@@H](C)O)[C@@H](C)O)C(C)C)C(=O)N[C@@H](C)C(=O)NCC(=O)NCC(=O)N1CCC[C@H]1C(=O)N[C@@H](CO)C(=O)N[C@@H](CO)C(=O)NCC(=O)N[C@@H](C)C(=O)N1CCC[C@H]1C(=O)N1CCC[C@H]1C(=O)N1CCC[C@H]1C(=O)N[C@@H](CO)C(N)=O (H-Y[Aib]EGTFTSDYSYYLEC(X7)QAAKLFVQWLLAGGPSSGAPPPS-NH2)
[1]; cho
  EC50: 510 pM
[2]; cho
  EC50: 200 pM

## CC(C)C[C@H](NC(=O)[C@H](CC(C)C)NC(=O)[C@H](Cc1c[nH]c2ccccc12)NC(=O)[C@H](CCC(N)=O)NC(=O)[C@@H](NC(=O)[C@H](Cc1ccccc1)NC(=O)[C@H](CC(C)C)NC(=O)[C@H](CCCCN)NC(=O)[C@H](C)NC(=O)[C@H](C)NC(=O)[C@H](CCC(N)=O)NC(=O)[C@H](CS)NC(=O)[C@H](CCC(=O)O)NC(=O)[C@H](CC(C)C)NC(=O)[C@H](Cc1ccc(O)cc1)NC(=O)[C@H](Cc1ccc(O)cc1)NC(=O)[C@H](CO)NC(=O)[C@H](Cc1ccc(O)cc1)NC(=O)[C@H](CC(=O)O)NC(=O)[C@H](CO)NC(=O)[C@@H](NC(=O)[C@H](Cc1ccccc1)NC(=O)[C@@H](NC(=O)CNC(=O)[C@H](CCC(=O)O)NC(=O)C(C)(C)NC(=O)[C@@H](N)Cc1ccc(O)cc1)[C@@H](C)O)[C@@H](C)O)C(C)C)C(=O)N[C@@H](C)C(=O)NCC(=O)NCC(=O)N1CCC[C@H]1C(=O)N[C@@H](CO)C(=O)N[C@@H](CO)C(=O)NCC(=O)N[C@@H](C)C(=O)N1CCC[C@H]1C(=O)N1CCC[C@H]1C(=O)N1CCC[C@H]1C(=O)N[C@@H](CO)C(N)=O (H-Y[Aib]EGTFTSDYSYYLECQAAKLFVQWLLAGGPSSGAPPPS-NH2)
[1]; cho
  EC50: 600 pM
[2]; cho
  EC50: 1870 pM

## CC(C)C[C@H](NC(=O)[C@H](CC(C)C)NC(=O)[C@H](Cc1c[nH]c2ccccc12)NC(=O)[C@H](CCC(N)=O)NC(=O)[C@@H](NC(=O)[C@H](Cc1ccccc1)NC(=O)[C@H](CC(C)C)NC(=O)[C@H](CCCCN)NC(=O)[C@H](C)NC(=O)[C@H](C)NC(=O)[C@H](CCC(N)=O)NC(=O)[C@H](CCCCN)NC(=O)[C@H](CCC(=O)O)NC(=O)[C@H](CC(C)C)NC(=O)[C@H](CSCC(=O)NCCCC[C@H](NC(=O)[C@@H](N)CCCCNC(=O)[C@@H](N)CCCCNC(=O)CC[C@H](NC(=O)CCCCCCCCCCCCCCCCCCC(=O)O)C(=O)O)C(=O)O)NC(=O)[C@H](Cc1ccc(O)cc1)NC(=O)[C@H](CO)NC(=O)[C@H](Cc1ccc(O)cc1)NC(=O)[C@H](CC(=O)O)NC(=O)[C@H](CO)NC(=O)[C@@H](NC(=O)[C@H](Cc1ccccc1)NC(=O)[C@@H](NC(=O)CNC(=O)[C@H](CCC(=O)O)NC(=O)C(C)(C)NC(=O)[C@@H](N)Cc1ccc(O)cc1)[C@@H](C)O)[C@@H](C)O)C(C)C)C(=O)N[C@@H](C)C(=O)NCC(=O)NCC(=O)N1CCC[C@H]1C(=O)N[C@@H](CO)C(=O)N[C@@H](CO)C(=O)NCC(=O)N[C@@H](C)C(=O)N1CCC[C@H]1C(=O)N1CCC[C@H]1C(=O)N1CCC[C@H]1C(=O)N[C@@H](CO)C(N)=O (H-Y[Aib]EGTFTSDYSYC(X1)LEKQAAKLFVQWLLAGGPSSGAPPPS-NH2)
[1]
  EC50: 460 pM
[2]
  EC50: 140 pM

## CC(C)C[C@H](NC(=O)[C@H](CC(C)C)NC(=O)[C@H](Cc1c[nH]c2ccccc12)NC(=O)[C@H](CSCC(=O)NCCCC[C@H](NC(=O)[C@@H](N)CCCCNC(=O)[C@@H](N)CCCCNC(=O)CC[C@H](NC(=O)CCCCCCCCCCCCCCCCC(=O)O)C(=O)O)C(=O)O)NC(=O)[C@@H](NC(=O)[C@H](Cc1ccccc1)NC(=O)[C@H](CC(C)C)NC(=O)[C@H](CCCCN)NC(=O)[C@H](C)NC(=O)[C@H](C)NC(=O)[C@H](CCC(N)=O)NC(=O)[C@H](CCCCN)NC(=O)[C@H](CCC(=O)O)NC(=O)[C@H](CC(C)C)NC(=O)[C@H](Cc1ccc(O)cc1)NC(=O)[C@H](Cc1ccc(O)cc1)NC(=O)[C@H](CO)NC(=O)[C@H](Cc1ccc(O)cc1)NC(=O)[C@H](CC(=O)O)NC(=O)[C@H](CO)NC(=O)[C@@H](NC(=O)[C@H](Cc1ccccc1)NC(=O)[C@@H](NC(=O)CNC(=O)[C@H](CCC(=O)O)NC(=O)C(C)(C)NC(=O)[C@@H](N)Cc1ccc(O)cc1)[C@@H](C)O)[C@@H](C)O)C(C)C)C(=O)N[C@@H](C)C(=O)NCC(=O)NCC(=O)N1CCC[C@H]1C(=O)N[C@@H](CO)C(=O)N[C@@H](CO)C(=O)NCC(=O)N[C@@H](C)C(=O)N1CCC[C@H]1C(=O)N1CCC[C@H]1C(=O)N1CCC[C@H]1C(=O)N[C@@H](CO)C(N)=O (H-Y[Aib]EGTFTSDYSYYLEKQAAKLFVC(X6)WLLAGGPSSGAPPPS-NH2)
[1]
  EC50: 400 pM
[2]
  EC50: 2760 pM

## CC(C)C[C@H](NC(=O)[C@H](CC(C)C)NC(=O)[C@H](Cc1c[nH]c2ccccc12)NC(=O)[C@H](CS)NC(=O)[C@@H](NC(=O)[C@H](Cc1ccccc1)NC(=O)[C@H](CC(C)C)NC(=O)[C@H](CCCCN)NC(=O)[C@H](C)NC(=O)[C@H](C)NC(=O)[C@H](CCC(N)=O)NC(=O)[C@H](CCCCN)NC(=O)[C@H](CCC(=O)O)NC(=O)[C@H](CC(C)C)NC(=O)[C@H](Cc1ccc(O)cc1)NC(=O)[C@H](Cc1ccc(O)cc1)NC(=O)[C@H](CO)NC(=O)[C@H](Cc1ccc(O)cc1)NC(=O)[C@H](CC(=O)O)NC(=O)[C@H](CO)NC(=O)[C@@H](NC(=O)[C@H](Cc1ccccc1)NC(=O)[C@@H](NC(=O)CNC(=O)[C@H](CCC(=O)O)NC(=O)C(C)(C)NC(=O)[C@@H](N)Cc1ccc(O)cc1)[C@@H](C)O)[C@@H](C)O)C(C)C)C(=O)N[C@@H](C)C(=O)NCC(=O)NCC(=O)N1CCC[C@H]1C(=O)N[C@@H](CO)C(=O)N[C@@H](CO)C(=O)NCC(=O)N[C@@H](C)C(=O)N1CCC[C@H]1C(=O)N1CCC[C@H]1C(=O)N1CCC[C@H]1C(=O)N[C@@H](CO)C(N)=O (H-Y[Aib]EGTFTSDYSYYLEKQAAKLFVCWLLAGGPSSGAPPPS-NH2)
[1]
  EC50: 570 pM
[2]
  EC50: 2570 pM
